Experiments:
cumulus-oocyte complexes = assay: cumulus expansion assay in vitro; assay type: cell-based, mice; details: competing with natural EP2 receptor agonist PGE2
Experimental: Folliculogenesis is induced in immature female mice at an age of 14-18 days by a single dose (intraperitoneal) of 10 I.U. of PMSG (Pregnant Mare Serum Gonadotropin; Sigma G-4877, Lot 68H0909). 47-50 hours after the injection, the ovaries are removed and the cumulus-oocyte complexes are removed. The cumulus complex is not yet expanded at this stage.
The cumulus-oocyte complexes are then incubated with prostaglandin E2 (PGE2) (1 μM), vehicle control (ethanol) or test substances for 20-24 hours. Medium: alpha-MEM medium with 0.1 mM IBMX, pyruvates (0.23 mM) glutamines (2 mM), pen/strep 100 IU/ml pen. and 100 μg/ml strep. and HSA (8 mg/ml). Cumulus expansion is then established through the division into four stages (according to Vanderhyden et al. Dev Biol. 1990 August; 140(2):307-317).

[1] = biological target: T1, human prostaglandin E2 (subtype EP2) receptor (Homo sapiens, UniProt P43116); assay: cAMP antagonism test (HTRF cAMP detection, PGE2 stimulation); assay type: cell-based; details: in presence of PGE2
T1 construct: host or cells: cells in a cell culture plate
Experimental: (§1) The binding of PGE2 to the EP2 subtype of the human PGE2 receptor induces activation of membrane-associated adenylate cyclases and leads to the formation of cAMP. In the presence of the phosphodiesterase inhibitor IBMX, cAMP which has accumulated due to this stimulation and been released by cell lysis is employed in a competitive detection method. In this assay, the cAMP in the lysate competes with cAMP-XL665 for binding of an Eu cryptate-labelled anti-cAMP antibody.
(§2) The two signals are measured in a suitable measuring instrument with a time lag, i.e. after the background fluorescence has declined.
(§3) The substance solutions (0.75 μl) introduced into an assay plate and 30% DMSO are dissolved in 16 μl of a KRSB+IBMX stimulation solution (1× Krebs-Ringer Bicarbonate Buffer; Sigma-Aldrich #K-4002; including 750 μM 3-isobutyl-1-methylxanthine Sigma-Aldrich #I-7018), and then 15 μl thereof are transferred into a media-free cell culture plate which has been washed with KRSB shortly beforehand.
After preincubation at room temperature (RT) for 30 minutes, 5 μl of a 4×PGE2 solution (11 nM) are added, and incubation is carried out in the presence of the agonist at RT for a further 60 min (volume: ˜20 μl) before the reaction is then stopped by adding 5 μl of lysis buffer and incubated at RT for a further 20 min (volume: ˜25 μl). The cell lysate is then transferred into a measuring plate and measured in accordance with the manufacturer's information (cyclic AMP kit Cisbio International #62AMPPEC).

[2] = biological target: T1, human prostaglandin E2 (subtype EP2) receptor; assay: cellular agonism test (cAMP); assay type: cell-based
Experimental: as §1, §2, §3
After incubation at room temperature (RT; volume: ˜15 μl) for 60 minutes, the reaction is then stopped by adding 5 μl of lysis buffer and incubated at RT for a further 20 min (volume: ˜20 μl). The cell lysate is then transferred into a measuring plate and measured in accordance with the manufacturer's instructions (cyclic AMP kit Cisbio International #62AMPPEC).

T1 sequence (P43116 whole entry): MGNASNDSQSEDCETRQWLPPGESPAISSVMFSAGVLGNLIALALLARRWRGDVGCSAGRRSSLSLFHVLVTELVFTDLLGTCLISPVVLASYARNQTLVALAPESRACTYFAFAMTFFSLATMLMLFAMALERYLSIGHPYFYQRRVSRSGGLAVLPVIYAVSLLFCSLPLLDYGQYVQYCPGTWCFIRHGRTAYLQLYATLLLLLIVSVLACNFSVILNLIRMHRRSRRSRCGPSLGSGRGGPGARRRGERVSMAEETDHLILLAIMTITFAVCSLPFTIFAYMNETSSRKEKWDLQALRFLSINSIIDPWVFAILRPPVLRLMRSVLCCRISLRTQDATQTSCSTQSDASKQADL

IC50 [1] [µM]	Structure (SMILES)	other results
–	CC(C)Oc1ccc2c(=O)c3cc(C(=O)O)ccc3oc2c1 [AH 6809, reference compound]	suppression of cumulus expansion (cumulus-oocyte complexes): approx. 30%
–	Oc1ccc(CCNc2ncnc3cc(-c4ccccc4)sc23)cc1 [Example 9, 4-[2-(6-Phenylthieno[3,2-d]pyrimidin-4-ylamino)ethyl]phenol]	suppression of cumulus expansion (cumulus-oocyte complexes; 10 μM): 45%
0.61	c1cnc2ccc(-c3cc4ncnc(NCc5ccc6c(c5)OCO6)c4s3)cc2c1 [Example 57, Benzo[1,3]dioxol-5-ylmethyl-(6-quinolin-6-yl-thieno[3,2-d]pyrimidin-4-yl)amine]	–
0.46	CC(=O)Nc1cccc(-c2cc3ncnc(NCc4ccc5c(c4)OCO5)c3s2)c1 [Example 69, N-(3-{4-[(Benzo[1,3]dioxol-5-ylmethyl)amino]thieno[3,2-d]pyrimidin-6-yl}phenyl)acetamide]	effect in the cellular agonism test [2]: no inhibition
0.31	COc1ccc(CNc2ncnc3cc(-c4cccc(NC(C)=O)c4)sc23)cc1 [Example 90, N-{3-[4-(4-Methoxybenzylamino)thieno[3,2-d]pyrimidin-6-yl]phenyl}acetamide]	–

Reference: US20090042878A1, “THIENOPYRIMIDYLAMINES AS MODULATORS OF THE EP2 RECEPTOR” (priority 2007, published 2009)
